{
  "source": "patent US20050069947A1",
  "about": "“Antibodies specific for nanotubes and related methods and compositions” (priority 2001, published 2005)",
  "key": {"[1]": {"test_system": "anti-fullerene antibodies", "assay": "ELISA inhibition of antibody binding to 1-RSA", "parameters": "species or system mice", "details": "for reactivity with polyclonal antibodies raised to C60: method not stated at the place; for inhibition of antibody binding to 1-RSA (ELISA inhibition): serum of mice immunized with 1-TG, plates coated with 1-RSA", "description": "After a total of three immunizations at 3-week intervals, confirmation of an immune response was determined by direct ELISA in which polystyrene plates (Corning) were coated with the 1-RSA conjugate (0.5 mg/ml in 0.1 M NaHCO3, pH 9), and binding of preimmune and immune sera were determined by standard procedures. Development was with horseradish peroxidase-labeled goat anti-mouse IgG (Sigma), which tested negative for crossreaction with an IgM preparation. The substrate used was o-phenylenediamine.\n(§1) Specificity of the response was determined by two procedures: double diffusion in agar (22) and competitive inhibition, as determined by ELISA using RSA and BSA conjugates of the fullerenes, as well as the oligo lysine derivatives. The fullerenes themselves were not soluble enough in aqueous solutions.\nThe adenosine conjugate had been synthesized using the same strategy used for the fullerenes, i.e., linkage to the epsilon amino groups of the lysines via an N-hydroxysuccinimide ester derivative.\nAfter a total of 3 immunizations at 3 week intervals, confirmation of an immune response was determined by direct ELISA in which polystyrene plates (Corning) were coated with 1-RSA conjugate (0.5 mg/ml in O.1 N NaHCO3, pH 9) and binding of preimmune and immune sera determined by standard procedures. Development was with horseradish peroxide-labeled goat anti-mouse IgG (Sigma, St. Louis, MO) which tested negative for cross reaction with an IgM preparation. The substrate used was o-phenylenediamine.\n(§2) Specificity of the response was determined by two procedures: double diffusion in agar and competitive inhibition, as determined by ELISA using RSA and BSA conjugates of the fullerenes, as well as the oligo lysine derivatives. The fullerenes themselves were not soluble enough in aqueous solutions."}, "[2]": {"details": "acute and subchronic topical applications; cited from earlier work"}, "[3]": {"assay": "Gamma-camera imaging biodistribution study", "format": "in vivo, Sprague-Dawley rats", "description": "The biodistribution in mice of hydroxylated lanthanide-C82 encapsulates is under current investigation. The results presented here are regarded as preliminary as the sample is still small. Studies continue under a NIH Phase I grant. The neutron irradiated samples, along with a […] control sample, were used to perform a γ-camera imaging study on four 300 g Sprague-Dawley rats. Two rats were injected intraperitoneally (IP) with 54 and 18 μCi of ^166Ho activity from samples containing irradiated Ho-metallofullerois. Two control studies were performed by […] of approximately 660 μCi of ^166Ho^3+ in a 1% sodium citrate buffer. The anesthetized rats were scanned side-by-side on a single stage with a γ-camera starting 1 hour after injection and periodically thereafter over the ensuing 48 hours."}, "[4]": {"test_system": "anti-fullerene antibodies", "assay": "Double diffusion in agar", "format": "binding, mice", "description": "as §1, §2"}},
  "data": [
    {"compound": "c12c3c4c5c1c1c6c7c2c2c8c3c3c9c4c4c%10c5c5c1c1c6c6c%11c%12c%13c%14c%15c%16c%17c%14c%14c%18c%13c%11c1c1c5c%10c5c(c%14c%10c%17c%11c%13c%16c%14c%16c%15c%12c%12c%16c(c2c7c%126)c2c8c3c(c%13c%142)c2c9c4c5c%10c%112)c%181", "note": "[Compound C70]", "values": [
      {"measurement": "reactivity with polyclonal antibodies raised to C60", "setting": "[1]", "value": "non-reactive"},
      {"measurement": "reactivity with polyclonal antibodies raised to C60", "setting": "[1]; listed as C70 fullerene", "value": "crossreacted"},
      {"measurement": "carcinogenic effects", "setting": "[2]", "value": "lack of carcinogenic effects"}
    ]},
    {"compound": "[166Ho+3]", "note": "[^166Ho^3−]", "values": [
      {"measurement": "urinary clearance", "setting": "[3]; IP, commencing as soon as 1 hour post-injection", "value": "rapid"},
      {"measurement": "^166Ho activity excreted", "setting": "[3]; after 24 hours", "value": "essentially all"}
    ]},
    {"compound": "RSA: rabbit serum albumin, control", "values": [
      {"measurement": "inhibition of antibody binding to 1-RSA (ELISA inhibition)", "setting": "[1]", "value": "No inhibition"}
    ]},
    {"compound": "TG: unsubstituted bovine thyroglobulin, carrier protein", "values": [
      {"measurement": "inhibition of antibody binding to 1-RSA (ELISA inhibition)", "setting": "[1]", "value": "No inhibition"},
      {"measurement": "precipitation in double diffusion in agar", "setting": "[4]; TG solution diluted 5-fold", "value": "a line of precipitation was seen"},
      {"measurement": "precipitation in double diffusion in agar", "setting": "[4]; serum of mice immunized with 1-TG", "value": "no visible precipitate"}
    ]}
  ]
}
